These results are taken from article PMC12362783 (Advanced Science, 2025).

A short description of data set [1]: Oral bioavailability (statement, no method). The conditions noted are these: preclinical models; necessitates I.P. delivery. In kind it is in vivo.
Data set [2] relates to MDA‐MB‐453. Put plainly: Cell growth inhibition, CellTiter‐Glo (CTG). The class given is cell-based. The conditions noted are these: Homo sapiens, MDA-MB-453; n = 3; read-out: IC50 MAD‐MB‐453. The method, then: (§1) Growth viability was determined by the CellTiter‐Glo luminescent viability assay (Promega) 5 days after drug treatment. Cell viability was measured immediately after dosing (Day 0) and after 5 days of incubation using CellTiter‐Glo (CTG, Promega, G7573). Relative viability was calculated by normalizing the raw luminescence counts of the treated groups to those of the DMSO control groups. IC₅₀ values were calculated using sigmoidal dose‐response curve fitting with GraphPad Prism 9.0 software.

The subject of data set [3] is MCF‐7. Put plainly: Cell growth inhibition, CellTiter‐Glo (CTG). In kind it is cell-based. The conditions noted are these: Homo sapiens, MCF7; n = 3. How it is done: as §1
For data set [4], the system named is MDA‐MB‐231 cells. Description: Immunofluorescence of γH2AX foci. The class given is cell-based. The conditions noted are these: 48 h, vs Olaparib, AZD6738, and their combination. How it is done: (§2) Cells were fixed for 30 min in 4% paraformaldehyde and permeabilized for 30 min in 1% Triton X‐100 at 4 °C. After three rinses with PBS, cells were blocked for 30 min with 5% BSA and incubated with γH2AX antibody (1/1000 dilution, CST#9718) in 5% BSA overnight at 4 °C, after which they were rinsed three times with PBS and incubated with the secondary antibodies at room temperature for 1 h. Then, cells were washed with PBS three times, and the nucleus was stained with DAPI and fixed. Finally, images were visualized with the microscope and analyzed.

The subject of data set [5] is MDA‐MB‐468 cells. Put plainly: Immunofluorescence of γH2AX foci. In kind it is cell-based. Particulars: 48 h, vs Olaparib, AZD6738, and their combination. How it is done: as §2
Data set [6] concerns MDA‐MB‐231 cells. Put plainly: Wound‐healing and transwell migration assay. The conditions noted are these: vs AZD6738 and Olaparib alone or their combination. The class given is cell-based. The method, then:
For the wound‐healing assay, MDA‐MB‐231 cells were seeded into 6‐well plates and grown to 80% confluence. A scratch was made in the cell monolayer using a 20 µL pipette tip, and the cells were washed with PBS to remove floating cells and debris. The cells were then incubated in serum‐free medium. Cells are divided into control and drug treatment Cells in the scratched area were imaged at 0 and 48 h using microscopy, and the distance traveled by cells at the leading edge of the wound at each time point was measured. To assess cell migration, a transwell assay was performed. […] Following 24 h of incubation, the filters were fixed in 4% paraformaldehyde, stained with 0.1% crystal violet, and then imaged and counted under a microscope to determine the number of invading cells. To assess cell invasion, the transwell plate was coated with a layer of Matrigel, and the rest procedure is similar to what has been described above.

Data set [7] relates to TNBC cells (MDA‐MB‐231, MDA‐MB‐468, MDA‐MB‐436). Put plainly: Anti‐proliferative activity across three TNBC cell lines (summary). The conditions noted are these: read-out: IC50 range across three TNBC cell lines. In kind it is cell-based. How it is done:
as §1, with “Cells were grown at 37 °C, under 95% air and 5% CO₂ until they reached about 70% confluence and were subcultured at least twice before the experiment. Cells were seeded at a density of 1000 cells/well in two 384‐well white plates, and the plates were placed in a 5% CO₂ incubator overnight. Growth” for “Growth”

Data set [8] concerns the target ATM (Homo sapiens, UniProt Q13315). Put plainly: PIKK family kinase selectivity. In kind it is biochemical.
In data set [9] the target is PI3Kα (Homo sapiens, UniProt P42336). Put plainly: PIKK family kinase selectivity. In kind it is biochemical.
For data set [10], the system named is MCF‐10A. Description: Cell growth inhibition, normal breast cell line. The class given is cell-based. The method, then: as §1
Data set [11] has as its system MDA‐MB‐231. Put plainly: Cell growth inhibition, CellTiter‐Glo (CTG). In kind it is cell-based. The method, then:
(§3) All cells were grown in a humidified incubator at 37 °C and 5% CO2.
(§4) […] […] Relative viability was calculated by normalizing the raw luminescence counts of the treated groups to those of the DMSO control groups. IC₅₀ values were calculated using sigmoidal dose‐response curve fitting with GraphPad Prism 9.0 software.

In data set [12] the test system is MDA‐MB‐468. Description: Cell growth inhibition, CellTiter‐Glo (CTG). In kind it is cell-based. How it is done: as §3, §4
Data set [13] can be described thus: Preliminary safety evaluation in xenografted mice (body weight, animal loss, H&E staining of organs). In kind it is in vivo. How it is done: MDA‐MB‐468 cells (1 × 10^7) were implanted in the right flanks subcutaneously in female nude mice. When the implanted tumor grew to a volume of 110 mm^3, the animals were randomly divided into four groups, each group containing four animals. […] Tumor size and body weights were measured twice a week. On day 28, the mice were euthanized, tumors were harvested and weighed, and vital organs (heart, liver, spleen, lung, and kidney) were collected. Processed samples were saved for further safety evaluation.
The tumor sample and vital organs were immersed in 4% paraformaldehyde for 4 h and transferred to 70% ethanol. Individual lobes of the sample were placed in processing cassettes, dehydrated through a serial alcohol gradient, and embedded in paraffin wax blocks. Thick tissue sections (5 µm) were dewaxed in xylene, rehydrated through decreasing concentrations of ethanol, washed in PBS, and stained with H&E. After staining, the sections were dehydrated through increasing concentrations of ethanol and xylene. Images were acquired on a fluorescent inverted microscope (Nikon DS‐Ri1).

The target in data set [14] is mTOR (Homo sapiens, UniProt P42345). Description: PIKK family kinase selectivity. The class given is biochemical. The conditions noted are these: @2500 nM; read-out: mTOR inhibitory rate at certain concentration.
For data set [15], the system named is MDA‐MB‐468 xenograft. Description: MDA‐MB‐468 xenografted mice model, antitumor efficacy. In kind it is in vivo. Particulars: 28 days. How it is done: Anticancer efficacy experiment in MDA‐MB‐468 Xenografted mice model was performed by Shanghai Medicilon Inc. All animal experiments in this study were conducted in strict accordance with national animal welfare regulations and were approved by the institutional animal ethics committee (Approval number: IACUC‐HZN2401P; Approval Date: 2024‐10‐18). MDA‐MB‐468 cells (1 × 10^7) were implanted in the right flanks subcutaneously in female nude mice. When the implanted tumor grew to a volume of 110 mm^3, the animals were randomly divided into four groups, each group containing four animals. Compound B8 was intraperitoneally (IP) administered at two different doses, bis in die (BID) for 28 days: low dose: 25 mg k^−1g and high dose 50 mg k^−1g. […] Tumor size and body weights were measured twice a week. On day 28, the mice were euthanized, tumors were harvested and weighed, and vital organs (heart, liver, spleen, lung, and kidney) were collected. Processed samples were saved for further safety evaluation.

[16] abbreviates: 24, 48, 72 h treatment, Figure S2.

The structures appear in SMILES notation. Bounds are passed on as bounds.

Sequence of PI3Kα (P42336 whole entry, species assumed): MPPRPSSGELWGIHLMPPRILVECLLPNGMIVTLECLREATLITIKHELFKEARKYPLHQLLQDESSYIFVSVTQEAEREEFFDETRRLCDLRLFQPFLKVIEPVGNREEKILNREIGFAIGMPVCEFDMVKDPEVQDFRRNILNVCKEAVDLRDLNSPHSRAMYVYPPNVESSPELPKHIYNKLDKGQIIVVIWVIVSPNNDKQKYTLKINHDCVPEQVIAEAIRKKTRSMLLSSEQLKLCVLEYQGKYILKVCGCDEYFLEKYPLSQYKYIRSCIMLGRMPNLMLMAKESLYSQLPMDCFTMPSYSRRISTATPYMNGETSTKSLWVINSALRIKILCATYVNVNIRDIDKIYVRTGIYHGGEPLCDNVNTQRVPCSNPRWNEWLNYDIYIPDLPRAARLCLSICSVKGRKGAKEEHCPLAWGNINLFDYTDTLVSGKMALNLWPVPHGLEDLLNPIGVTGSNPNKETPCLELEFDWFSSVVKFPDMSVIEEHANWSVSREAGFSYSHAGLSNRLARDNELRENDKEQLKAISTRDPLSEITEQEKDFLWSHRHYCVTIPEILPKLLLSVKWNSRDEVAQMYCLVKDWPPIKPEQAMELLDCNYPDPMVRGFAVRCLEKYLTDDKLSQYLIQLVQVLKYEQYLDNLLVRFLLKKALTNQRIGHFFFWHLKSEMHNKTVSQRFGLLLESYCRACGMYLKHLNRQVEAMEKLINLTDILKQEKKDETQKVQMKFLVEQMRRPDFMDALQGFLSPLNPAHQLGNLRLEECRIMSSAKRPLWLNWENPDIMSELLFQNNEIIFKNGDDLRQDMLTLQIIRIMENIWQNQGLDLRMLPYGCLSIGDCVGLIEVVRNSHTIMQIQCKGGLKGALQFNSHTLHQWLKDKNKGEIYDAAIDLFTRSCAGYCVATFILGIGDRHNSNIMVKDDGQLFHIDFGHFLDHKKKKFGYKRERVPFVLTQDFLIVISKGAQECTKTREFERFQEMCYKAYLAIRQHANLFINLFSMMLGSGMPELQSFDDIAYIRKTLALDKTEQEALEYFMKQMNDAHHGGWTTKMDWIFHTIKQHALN
Sequence of PI3Kα (P27986 whole entry partner, species assumed): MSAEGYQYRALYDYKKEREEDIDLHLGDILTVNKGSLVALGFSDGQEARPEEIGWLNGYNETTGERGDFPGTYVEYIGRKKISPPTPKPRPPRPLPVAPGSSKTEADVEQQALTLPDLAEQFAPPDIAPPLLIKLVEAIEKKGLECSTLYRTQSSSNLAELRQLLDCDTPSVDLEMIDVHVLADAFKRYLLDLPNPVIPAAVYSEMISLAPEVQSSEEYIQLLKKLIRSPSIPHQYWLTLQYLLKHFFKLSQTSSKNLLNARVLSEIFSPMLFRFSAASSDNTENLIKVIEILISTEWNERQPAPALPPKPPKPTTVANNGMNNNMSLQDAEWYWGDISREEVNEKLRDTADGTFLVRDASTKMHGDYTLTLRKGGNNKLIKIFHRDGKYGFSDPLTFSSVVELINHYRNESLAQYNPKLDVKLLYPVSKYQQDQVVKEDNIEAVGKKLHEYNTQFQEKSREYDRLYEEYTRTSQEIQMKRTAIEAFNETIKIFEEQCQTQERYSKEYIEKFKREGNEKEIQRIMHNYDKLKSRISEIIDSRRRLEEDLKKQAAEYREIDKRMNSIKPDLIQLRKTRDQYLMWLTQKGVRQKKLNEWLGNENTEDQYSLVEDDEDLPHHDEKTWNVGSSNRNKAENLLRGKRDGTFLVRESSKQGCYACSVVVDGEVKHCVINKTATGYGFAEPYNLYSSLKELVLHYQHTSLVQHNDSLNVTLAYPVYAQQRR
Sequence of ATM (Q13315 whole entry, species assumed): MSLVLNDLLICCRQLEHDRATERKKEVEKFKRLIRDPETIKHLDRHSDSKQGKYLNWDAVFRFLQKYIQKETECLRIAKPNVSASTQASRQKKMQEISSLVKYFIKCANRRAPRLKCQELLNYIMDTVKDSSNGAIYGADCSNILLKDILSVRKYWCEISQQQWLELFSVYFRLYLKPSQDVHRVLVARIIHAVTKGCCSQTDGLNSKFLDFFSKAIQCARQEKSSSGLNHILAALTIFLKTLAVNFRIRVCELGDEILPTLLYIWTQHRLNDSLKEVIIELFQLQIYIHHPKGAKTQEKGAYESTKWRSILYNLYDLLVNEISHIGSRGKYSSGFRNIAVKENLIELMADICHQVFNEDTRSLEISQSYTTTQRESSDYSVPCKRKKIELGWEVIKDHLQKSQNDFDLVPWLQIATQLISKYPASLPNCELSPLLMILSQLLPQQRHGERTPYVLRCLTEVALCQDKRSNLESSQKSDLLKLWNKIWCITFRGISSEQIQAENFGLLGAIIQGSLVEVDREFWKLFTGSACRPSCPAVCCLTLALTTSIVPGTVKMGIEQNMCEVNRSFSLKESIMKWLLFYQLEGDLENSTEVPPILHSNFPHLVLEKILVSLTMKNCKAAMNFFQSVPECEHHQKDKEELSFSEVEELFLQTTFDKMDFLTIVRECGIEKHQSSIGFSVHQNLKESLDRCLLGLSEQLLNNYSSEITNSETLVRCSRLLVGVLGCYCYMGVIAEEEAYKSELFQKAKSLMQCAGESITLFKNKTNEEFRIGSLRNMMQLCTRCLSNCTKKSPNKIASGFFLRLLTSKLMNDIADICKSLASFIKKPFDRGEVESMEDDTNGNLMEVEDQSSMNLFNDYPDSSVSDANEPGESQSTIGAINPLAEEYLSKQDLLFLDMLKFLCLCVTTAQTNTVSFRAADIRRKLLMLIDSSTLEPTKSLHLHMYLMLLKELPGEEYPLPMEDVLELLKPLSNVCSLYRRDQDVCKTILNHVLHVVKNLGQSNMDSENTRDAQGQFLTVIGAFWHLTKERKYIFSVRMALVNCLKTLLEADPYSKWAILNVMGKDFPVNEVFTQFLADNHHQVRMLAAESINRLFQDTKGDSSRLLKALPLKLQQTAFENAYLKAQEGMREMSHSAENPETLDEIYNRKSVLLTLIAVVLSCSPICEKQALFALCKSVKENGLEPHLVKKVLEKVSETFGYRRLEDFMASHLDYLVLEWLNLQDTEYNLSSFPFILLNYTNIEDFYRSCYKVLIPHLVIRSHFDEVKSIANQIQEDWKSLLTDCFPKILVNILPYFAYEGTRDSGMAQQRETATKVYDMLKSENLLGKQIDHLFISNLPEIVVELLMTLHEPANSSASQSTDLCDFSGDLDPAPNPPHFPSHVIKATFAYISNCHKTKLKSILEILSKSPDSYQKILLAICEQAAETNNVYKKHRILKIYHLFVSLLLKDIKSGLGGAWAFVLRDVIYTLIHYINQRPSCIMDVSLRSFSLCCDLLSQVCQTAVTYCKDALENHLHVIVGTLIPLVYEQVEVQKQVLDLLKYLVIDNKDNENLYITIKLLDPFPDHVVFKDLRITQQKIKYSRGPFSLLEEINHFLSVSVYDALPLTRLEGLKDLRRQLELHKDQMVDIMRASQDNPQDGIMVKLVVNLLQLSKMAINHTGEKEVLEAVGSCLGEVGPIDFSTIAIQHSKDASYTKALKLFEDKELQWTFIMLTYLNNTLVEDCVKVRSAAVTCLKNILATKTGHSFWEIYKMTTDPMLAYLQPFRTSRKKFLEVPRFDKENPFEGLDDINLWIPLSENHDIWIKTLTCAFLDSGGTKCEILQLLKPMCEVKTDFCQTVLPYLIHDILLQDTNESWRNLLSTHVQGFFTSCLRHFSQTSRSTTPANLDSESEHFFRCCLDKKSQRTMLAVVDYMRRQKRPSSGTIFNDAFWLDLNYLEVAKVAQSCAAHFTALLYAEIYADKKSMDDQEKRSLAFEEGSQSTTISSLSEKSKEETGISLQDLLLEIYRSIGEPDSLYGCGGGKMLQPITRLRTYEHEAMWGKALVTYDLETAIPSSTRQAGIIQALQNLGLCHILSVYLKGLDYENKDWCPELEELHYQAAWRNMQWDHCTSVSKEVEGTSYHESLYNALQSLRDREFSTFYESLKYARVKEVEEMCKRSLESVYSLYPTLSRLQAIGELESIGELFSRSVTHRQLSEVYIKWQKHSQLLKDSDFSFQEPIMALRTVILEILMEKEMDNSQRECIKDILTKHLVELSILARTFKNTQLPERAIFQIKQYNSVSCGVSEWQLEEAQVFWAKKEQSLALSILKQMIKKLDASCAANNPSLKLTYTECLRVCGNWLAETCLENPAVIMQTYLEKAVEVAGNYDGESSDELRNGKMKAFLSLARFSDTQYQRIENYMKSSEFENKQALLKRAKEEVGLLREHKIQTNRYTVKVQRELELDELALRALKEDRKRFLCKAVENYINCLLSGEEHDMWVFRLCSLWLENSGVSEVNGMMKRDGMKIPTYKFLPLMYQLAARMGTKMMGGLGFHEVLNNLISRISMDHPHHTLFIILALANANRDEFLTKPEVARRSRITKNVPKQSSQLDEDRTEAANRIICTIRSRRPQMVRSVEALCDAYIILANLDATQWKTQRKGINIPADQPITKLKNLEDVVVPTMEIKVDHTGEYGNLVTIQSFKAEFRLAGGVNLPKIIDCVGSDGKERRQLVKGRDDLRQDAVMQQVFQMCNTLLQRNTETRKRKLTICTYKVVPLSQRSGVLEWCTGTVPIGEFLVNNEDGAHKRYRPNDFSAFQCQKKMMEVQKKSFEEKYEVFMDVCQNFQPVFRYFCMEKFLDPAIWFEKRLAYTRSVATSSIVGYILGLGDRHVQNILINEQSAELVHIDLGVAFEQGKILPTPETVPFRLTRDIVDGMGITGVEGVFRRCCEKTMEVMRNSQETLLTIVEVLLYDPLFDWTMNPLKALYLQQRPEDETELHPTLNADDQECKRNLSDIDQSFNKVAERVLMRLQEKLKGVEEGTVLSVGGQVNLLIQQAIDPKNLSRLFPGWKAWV

Consider `C[C@@H]1COCCN1c1cc(CNC(=O)c2ccc(C(=O)N3CCN(C(=O)c4cc(Cc5n[nH]c(=O)c6ccccc56)ccc4F)CC3)cc2)nc(-c2ccnc3[nH]ccc23)n1` [Compound B8, (R)‐4‐(4‐(2‐fluoro‐5‐((4‐oxo‐3,4‐dihydrophthalazin‐1‐yl)methyl)benzoyl)piperazine‐1‐carbonyl)‐N‐((6‐(3‐methylmorpholino)‐2‐(1H‐pyrrolo[2,3‐b]pyridin‐4‐yl)pyrimidin‐4‐yl)methyl) benzamide], for which the oral bioavailability entry in data set [1] was “poor oral bioavailability”. Also, the IC50 was 1080 ± 30 nM in data set [2]; 970 ± 90 nM in data set [3]; 9 to 1890 nM in [7]; above 5000 nM in data set [8]; above 2500 nM in [9]; 1890 ± 130 nM in [11] (Homo sapiens, MDA-MB-231, 120 h, read-out: IC50 MDA‐MB‐231, CTG, 5 days, n = 3). Further, half-maximal inhibition in data set [12] (Homo sapiens, MDA-MB-468, 120 h, CTG, 5 days, n = 3) (IC50) required 320 ± 10 nM. For the same compound, the “γH2AX foci formation” value in data set [4] and in data set [5] was “significantly increased the formation of γH2AX foci” throughout. For the same compound, in [6], the “migratory capacity” value was “superior inhibitory effect on the migratory capacity”. The inhibition at 30 µM in data set [10] (Homo sapiens, MCF-10A, @30 µM, read-out: MCF‐10A inhibitory rate at certain concentration) is 17%. For the same compound, the “inhibitory activity against normal cells” value in data set [10] (MCF‐10A) is “minimal inhibitory activity against normal cells”. The “anti‐proliferation effect at different time points” value in data set [11] (setting [16]) and in [12] (setting [16]) was “exerted anti‐proliferation activity” throughout. In addition, in data set [13] (B8 25 and 50 mg/kg I.P., 28 days, nude mice), the “effect on body weight” value is “no significant effect on body weight”. Moreover, the “H&E staining of heart, liver, spleen, lungs, and kidneys” value in [13] (after 28 days of continuous administration) was “did not cause significant changes in organ structure or cellular morphology”. For the same compound, in data set [14], the inhibition at […] was 10.3%. In [15] (B8 50 mg/kg I.P., female nude mice), the “tumor growth inhibition rate (TGI)” value was determined as 68.36%. Also, the “tumor weight and volume” value in data set [15] (B8‐treated mice) is “significantly lower than control groups”.

The IC50 is the concentration that gives 50% inhibition.
